Numbers after ± are expanded uncertainties.
Assay: refractive index (Na D-line) (dimensionless)
Conditions: 293.15 K, Liquid, Standard Abbe refractometry

Structure (SMILES): c1ccoc1 [furan]
- refractive index (101.23 kPa): 1.4218 ± 0.0004

Structure (SMILES): Cc1ccccc1 [toluene]
- refractive index (100 kPa): 1.4966 ± 0.0007

Source: the NIST ThermoML archive (doi:10.1021/acs.jced.6b00424)
